Paper PMC5449454, “Anti-Double-Stranded DNA IgG Participates in Renal Fibrosis through Suppressing the Suppressor of Cytokine Signaling 1 Signals” (Frontiers in Immunology, 2017)
Entries after “also recorded” stand apart in the source; their conditions may differ.

Legend:
mesangial cells [1] = assay: Real-time PCR, mesangial cells; format: cell-based, murine; conditions: anti-dsDNA IgG 2 µg/ml premixed with peptide 1 µg/ml, 2 days
Method: Immortal murine mesangial cells and glomerular endothelial cells (Jieqing Biotech, Wuhan, China) were cultured in RPMI 1640 medium supplemented with 10% fetal bovine serum ([8], [33]). Immortal murine proximal tubular epithelial cells (kindly provided by Dr. Cheng Pan, Wuhan University, China) were cultured in Dulbecco’s modified Eagle’s medium as described previously ([34]).
(§1) By using a HiTrap purification kit (GE Healthcare, Port Washington, NY, USA) ([8]), anti-dsDNA IgG was purified from the culture supernatants of murine WJ31 hydridoma clone (IgG2a; Jieqing Biotech). Control murine IgG (IgG2a; Jieqing Biotech) was verified by enzyme-linked immunosorbent assay (ELISA) to determine that there was no binding to DNA antigen (data not shown). Cells were starved routinely before the 2-day stimulation of anti-dsDNA IgG or control IgG (2 µg/ml). In some experiments, mesangial cells were stimulated with anti-dsDNA IgG (2 µg/ml) that was premixed with D-form (ALWPPNLHAWVP) or scrambled (PLPHNPWVLAAW) ALW peptide (1 µg/ml). The cell viability of three types of cells was measured using PrestoBlue viability reagent (Life Technologies, Carlsbad, CA, USA).
As previously described ([8]), total RNA was extracted from fresh tissues or cultured cells, followed by reverse transcription. The 7900HT Fast PCR System (Applied Biosystems, Carlsbad, CA, USA) was used for PCR, and SYBR Green Master Mixes (Invitrogen, Grand Island, NY, USA) was used as fluorescent dye. The sequences of primers (Jieqing Biotech) are listed in Table S2 in Supplementary Material.

[2] = system: anti-dsDNA IgG binding to SOCS1-KIR peptide; assay: Inhibition ELISA, anti-dsDNA IgG binding to SOCS1-KIR peptide; set-up: species or system murine; conditions: anti-dsDNA IgG 2 µg/ml pre-incubated with serially diluted peptide (0.04 to 80 µg/ml); three independent experiments
Method: (§2) Common ELISAs (for binding to dsDNA or peptide) and inhibition ELISAs were performed as previously described ([8], [35]). Briefly, the KIR ELISA was carried out by adding biotinylated KIR peptide (DTHFRTFRSHSDYRRI, 5 µg/ml) to streptavidin-coated 96-well plates. For inhibition with KIR (or ALW) peptide, anti-dsDNA IgG (2 µg/ml) was pre-incubated with serially diluted peptide (from 0.04 to 80 µg/ml), and then transferred to antigen-coated 96-well plates. Alkaline phosphatase-conjugated goat anti-mouse IgG (2 µg/ml; Southern Biotech) was used as secondary antibody. Similarly, for inhibition with anti-dsDNA IgG, the FITC-labeled JAK2 loop peptide (LPQDKEYYKVKEP, 0.2 µg/ml) was pre-incubated with serially diluted anti-dsDNA IgG (from 0.02 to 20 µg/ml) before transfer to KIR-coated plates, which were detected for fluorescein intensity under a Perkin Elmer Reader (Winpact Scientific, Irvine, CA, USA). Cell surface ELISA was performed by growing mesangial cells in 96-well plates ([8], [35]). All peptides were synthesized by Sangon Biotech Company (Shanghai, China).

glomeruli of SCID mice = assay: Glomerular IgG deposition (IHC and IF), SCID mice; format: in vivo; conditions: i.v., anti-dsDNA IgG mixed with D-form ALW before injection, n = 5, versus anti-dsDNA IgG alone
Excerpt: Renal biopsies were obtained from patients with LN (n = 7), who had serum positivity of anti-dsDNA IgG (Table S1 in Supplementary Material). The diagnosis of LN was made based on the histological features of renal biopsies. For normal human controls, sera and non-lesional tissues were taken from patients (n = 5) who underwent surgical nephrectomy due to renal cell carcinoma or renal rupture (Table S1 in Supplementary Material). There was no statistical difference in term of age between the LN patients and the controls (p > 0.05). […] The MRL/lpr and MRL/MpJ mice (female, 12 or 24 weeks old, n = 5 each group) as well as SCID mice (female, 8 weeks old, n = 5 each group) were bred in the animal facility of Xi’an Jiaotong University Health Science Center. Urine, sera, and renal tissues were harvested from MRL/lpr and MRL/MpJ mice. Proteinuria was quantitated by the Coomassie brilliant blue method ([32]). All data about MRL/lpr and MRL/MpJ mice referred to that at age of 24 weeks unless otherwise noted. These SCID mice received intravenous injections of anti-dsDNA or control IgG at a dose of 100 µg twice weekly, which lasted for 4 weeks (n = 5 each group). Then, both serum and kidney samples were collected from SCID mice. This study was carried out in accordance with the recommendations of the guidelines of the Hospital Research Ethics Committee with written informed consent from all subjects. […]

mesangial cells [3] = assay: Cell viability (PrestoBlue), mesangial cells; format: cell-based, murine; conditions: D-form ALW 1 µg/ml, 2 days
Method: as §1
Mesangial Glomerular Tubular cells endothelial epithelial
Supplementary Figure S7. Cell viability assays of kidney cells. (A) Murine cells were cultured in vitro, and received control or anti-dsDNA IgG stimulation (2 µg/ml, 2 days). (B) Similarly, these cells were also stimulated with scrambled or D-form ALW peptide (1 µg/ml, 2 days). The cell viability was measured using PrestoBlue viability reagent. Data were from three independent experiments. Data points and error bars […]
(also on this page, place not known: µ g/ml,2 µ g/ml,2 Cell viability (%) Cell viability (%))

[4] = system: anti-dsDNA IgG binding to dsDNA antigen; assay: Inhibition ELISA, anti-dsDNA IgG binding to dsDNA antigen; set-up: species or system murine; conditions: anti-dsDNA IgG 2 µg/ml pre-incubated with serially diluted peptide (0.04 to 80 µg/ml); three independent experiments
Method: as §2

In the case of “ALWPPNLHAWVP [D-form ALW, ALW peptide with two terminal residues A and P replaced with D-form ones]”, the “CTGF mRNA expression level, ALW plus anti-dsDNA IgG” value (mesangial cells [1]) is reported as “significantly reduced”, the “Fn14 mRNA expression level, ALW plus anti-dsDNA IgG” value (mesangial cells [1]) is reported as “significantly reduced” and the “JAK2 mRNA level, ALW plus anti-dsDNA IgG” value (mesangial cells [1]) is reported as “decreased”. For the same sequence, the “PDGFB mRNA expression level, ALW plus anti-dsDNA IgG” value (mesangial cells [1]) was “significantly reduced”, the “SOCS1 mRNA expression level, ALW plus anti-dsDNA IgG” value (mesangial cells [1]) was “did not affect” and the “STAT1 mRNA level, ALW plus anti-dsDNA IgG” value (mesangial cells [1]) was “decreased”. The “inhibition of anti-dsDNA IgG binding to SOCS1-KIR peptide” value [2] was “inhibited”, the “glomerular IgG deposition, ALW plus anti-dsDNA IgG” value (glomeruli of SCID mice) was “less IgG deposition; also recorded: significant reduction” and the cell viability (mesangial cells [3]) was “no changes”. For the same sequence, the “inhibition of anti-dsDNA IgG binding to DNA antigen” value [4] was “inherited the inhibitory property of the (natural) ALW”.
